Experimental data taken from ChEMBL document CHEMBL1149779, “Synthesis, characterization and in vitro release studies of a new acetazolamide-HP-beta-CD-TEA inclusion complex” (Eur J Med Chem, 2008).
Converted amounts (≈) assume the structure as drawn.

Tests used:
[1] = Permeability across rabbit cornea; assay type: ADME, tissue-based, Oryctolagus cuniculus
[2] = physchem; conditions: citric acid-Na2HPO4 buffer, pH 4.12
Description: Solubility in citric acid-Na2HPO4 buffer at pH 4.12

[3] = physchem; conditions: citric acid-Na2HPO4 buffer, pH 4.12; remark: listed apart in the source
Description: Solubility in citric acid-Na2HPO4 buffer at pH 4.12 in presence of 0.0226 mol/l hydroxypropyl-beta-cyclodextrin

[4] = physchem; conditions: citric acid-Na2HPO4 buffer, pH 4.12; remark: listed apart in the source
Description: Solubility in citric acid-Na2HPO4 buffer at pH 4.12 in presence of 0.0302 mol/l hydroxypropyl-beta-cyclodextrin

[5] = physchem; conditions: citric acid-Na2HPO4 buffer, pH 4.12; remark: listed apart in the source
Description: Solubility in citric acid-Na2HPO4 buffer at pH 4.12 in presence of 0.0604 mol/l hydroxypropyl-beta-cyclodextrin

[6] = physchem; conditions: citric acid-Na2HPO4 buffer, pH 4.12; remark: listed apart in the source
Description: Solubility in citric acid-Na2HPO4 buffer at pH 4.12 in presence of 0.0755 mol/l hydroxypropyl-beta-cyclodextrin

[7] = physchem; conditions: citric acid-Na2HPO4 buffer, pH 4.12; remark: listed apart in the source
Description: Solubility in citric acid-Na2HPO4 buffer at pH 4.12 in presence of 0.1132 mol/l hydroxypropyl-beta-cyclodextrin

[8] = physchem; conditions: citric acid-Na2HPO4 buffer, pH 4.12; remark: listed apart in the source
Description: Solubility in citric acid-Na2HPO4 buffer at pH 4.12 in presence of 0.1660mol/l hydroxypropyl-beta-cyclodextrin

[9] = physchem; conditions: water
[10] = physchem; conditions: water; remark: listed apart in the source
Description: Solubility in water in presence of 0.0151 mol/l hydroxypropyl-beta-cyclodextrin

[11] = physchem; conditions: water; remark: listed apart in the source
Description: Solubility in water in presence of 0.0302 mol/l hydroxypropyl-beta-cyclodextrin

[12] = physchem; conditions: water; remark: listed apart in the source
Description: Solubility in water in presence of 0.0604 mol/l hydroxypropyl-beta-cyclodextrin

[13] = physchem; conditions: water; remark: listed apart in the source
Description: Solubility in water in presence of 0.0755 mol/l hydroxypropyl-beta-cyclodextrin

[14] = physchem; conditions: water; remark: listed apart in the source
Description: Solubility in water in presence of 0.1132 mol/l hydroxypropyl-beta-cyclodextrin

[15] = physchem; conditions: NaOH-NaHCO3 buffer, pH 9.57
Description: Solubility in NaOH-NaHCO3 buffer at pH 9.57

[16] = physchem; conditions: NaOH-NaHCO3 buffer, pH 9.57; remark: listed apart in the source
Description: Solubility in NaOH-NaHCO3 buffer at pH 9.57 in presence of 0.0226 mol/l hydroxypropyl-beta-cyclodextrin

[17] = physchem; conditions: NaOH-NaHCO3 buffer, pH 9.57; remark: listed apart in the source
Description: Solubility in NaOH-NaHCO3 buffer at pH 9.57 in presence of 0.0302 mol/l hydroxypropyl-beta-cyclodextrin

[18] = physchem; conditions: NaOH-NaHCO3 buffer, pH 9.57; remark: listed apart in the source
Description: Solubility in NaOH-NaHCO3 buffer at pH 9.57 in presence of 0.0604 mol/l hydroxypropyl-beta-cyclodextrin

[19] = physchem; conditions: NaOH-NaHCO3 buffer, pH 9.57; remark: listed apart in the source
Description: Solubility in NaOH-NaHCO3 buffer at pH 9.57 in presence of 0.0755 mol/l hydroxypropyl-beta-cyclodextrin

[20] = physchem; conditions: NaOH-NaHCO3 buffer, pH 9.57; remark: listed apart in the source
Description: Solubility in NaOH-NaHCO3 buffer at pH 9.57 in presence of 0.1132 mol/l hydroxypropyl-beta-cyclodextrin

[21] = physchem; conditions: NaOH-NaHCO3 buffer, pH 9.57; remark: listed apart in the source
Description: Solubility in NaOH-NaHCO3 buffer at pH 9.57 in presence of 0.1660 mol/l hydroxypropyl-beta-cyclodextrin

[22] = physchem; conditions: water; remark: listed apart in the source
Description: Solubility in water in presence of 0.334 mol/l triethanolamine

[23] = physchem; conditions: water; remark: listed apart in the source
Description: Solubility in water in presence of 0.1001 mol/l triethanolamine

[24] = physchem; conditions: citric acid-Na2HPO4 buffer, pH 4.12; remark: listed apart in the source
Description: Solubility in citric acid-Na2HPO4 buffer at pH 4.12 in presence of 0.2 M hydroxypropyl-beta-cyclodextrin

[25] = physchem; conditions: NaOH-NaHCO3 buffer, pH 9.57; remark: listed apart in the source
Description: Solubility in NaOH-NaHCO3 buffer at pH 9.57 in presence of 0.2 M hydroxypropyl-beta-cyclodextrin

For `CC(=O)Nc1nnc(S(N)(=O)=O)s1` [ACETAZOLAMIDE], the permeability [1] was 4.1 ×10⁻⁶ cm/s, the solubility [2] was 850 µg/mL (≈ 3.82 mM) and the solubility [3] was 1660 µg/mL (≈ 7.47 mM). For the same molecule, the solubility [4] was 1830 µg/mL (≈ 8.23 mM), the solubility [5] was 2280 µg/mL (≈ 10.3 mM) and the solubility [6] was 2960 µg/mL (≈ 13.3 mM). The solubility [7] was 3780 µg/mL (≈ 17 mM), the solubility [8] was 4970 µg/mL (≈ 22.4 mM) and the solubility [9] was 810 µg/mL (≈ 3.64 mM). The solubility [10] was 1880 µg/mL (≈ 8.46 mM), the solubility [11] was 2440 µg/mL (≈ 11 mM) and the solubility [12] was 4510 µg/mL (≈ 20.3 mM). The solubility [13] was 5530 µg/mL (≈ 24.9 mM), the solubility [14] was 7030 µg/mL (≈ 31.6 mM) and the solubility [15] was 2770 µg/mL (≈ 12.5 mM). The solubility [16] was 3210 µg/mL (≈ 14.4 mM), the solubility [17] was 3620 µg/mL (≈ 16.3 mM) and the solubility [18] was 4770 µg/mL (≈ 21.5 mM). The solubility [19] was 5290 µg/mL (≈ 23.8 mM), the solubility [20] was 5930 µg/mL (≈ 26.7 mM) and the solubility [21] was 7020 µg/mL (≈ 31.6 mM). For the same molecule, the solubility [22] was 3860 µg/mL (≈ 17.4 mM), the solubility [23] was 5910 µg/mL (≈ 26.6 mM) and the solubility [24] was 4970 µg/mL (≈ 22.4 mM). It also gave a solubility [25] of 7020 µg/mL (≈ 31.6 mM).
